Experimental data as given in patent publication US20030113814A1, “Identification of modulators of gpr55 activity” (priority 2002, published 2003).

Key:
EDG1 = target: T1, EDG1 (Homo sapiens, UniProt P21453); test: Yeast reporter gene assay with unrelated receptor; type: cell-based
T1 construct: expressed in transfected cells; host or cells: Saccharomyces cerevisiae reporter strain (inferred from context)

[1] = tested on: control cells transformed with the vector p426GPD in combination with Gpa1/Gα13 and therefore lacking GPR55; test: Yeast reporter gene assay in control cells transformed with vector p426GPD (lacking GPR55); type: cell-based, Saccharomyces cerevisiae; details: data not shown
Text: A system of yeast strains MMY14-MMY24 has been described previously (Olesnicky et al, EMBO J. 18, 2756-2763, 1999, Brown et al, Yeast 16, 11-22, 2000). These strains contain a series of genetic modifications to enable coupling of heterologously expressed receptors to the expression of two reporter genes, via the endogenous yeast pheromone response signal transduction pathway. Importantly, the gene encoding the endogenous yeast pheromone receptor, STE2, has been deleted from these strains such that cells containing p426GPD-GPR55 will express GPR55 protein in place of Ste2 receptor protein. Furthermore, the gene encoding the G-protein α-subunit involved in the pheromone response, GPA1, has been deleted from these strains. To enable receptor coupling in strains MMY14-24, plasmid constructs encoding modified versions of GPA1 have been stably integrated into the yeast chromosome and are expressed in place of endogenous yeast GPA1. […]
In vivo assays of reporter gene induction were carried out by suspending yeast cells transformed as described above to a density of 0.02 OD600/ml in 200 μl SC-glucose (2%) medium lacking tryptophan, uracil and histidine. […] Plates were incubated for 24 hours at 30° C. without agitation, and absorbance at 570 nm was determined using a Spectrofluor microtitre plate reader (Tecan).

Human GPR55 = target: T2, Human GPR55 (Homo sapiens, UniProt Q9Y2T6); test: Yeast FUS1-lacZ/FUS1-HIS3 reporter gene induction assay, yeast expressing p426GPD-GPR55 with Gpa1/Gα chimeras; type: cell-based
T2 construct: expressed in transfected cells; host or cells: Saccharomyces cerevisiae strains MMY14-MMY24 (STE2 and GPA1 deleted, Gpa1/Gα chimeras integrated)
Text: These strains contain a series of genetic modifications to enable coupling of heterologously expressed receptors to the expression of two reporter genes, via the endogenous yeast pheromone response signal transduction pathway. Importantly, the gene encoding the endogenous yeast pheromone receptor, STE2, has been deleted from these strains such that cells containing p426GPD-GPR55 will express GPR55 protein in place of Ste2 receptor protein. Furthermore, the gene encoding the G-protein α-subunit involved in the pheromone response, GPA1, has been deleted from these strains. To enable receptor coupling in strains MMY14-24, plasmid constructs encoding modified versions of GPA1 have been stably integrated into the yeast chromosome and are expressed in place of endogenous yeast GPA1. […] Generally, the modifications made to Gpa1 facilitate coupling of heterologously expressed receptors to the yeast pheromone response pathway.
In vivo assays of reporter gene induction were carried out by suspending yeast cells transformed as described above to a density of 0.02 OD600/ml in 200 μl SC-glucose (2%) medium lacking tryptophan, uracil and histidine. This medium was supplemented with 10 mM 3-aminotriazole and the β-galactosidase (lacZ) substrate chlorophenolred-β-D-galactopyranoside (CPRG; Boehringer Mannheim) to a concentration of 0.1 mg/ml. […] To visualise the yellow to red colour change reaction occurring on degradation of CPRG due to β-galactosidase, the medium was buffered to pH 7 with 0.1 M sodium phosphate. The assay was conducted in flat-bottomed sterile 96-well microtitre plates. Plates were incubated for 24 hours at 30° C. without agitation, and absorbance at 570 nm was determined using a Spectrofluor microtitre plate reader (Tecan).

T2 sequence (Q9Y2T6 whole entry): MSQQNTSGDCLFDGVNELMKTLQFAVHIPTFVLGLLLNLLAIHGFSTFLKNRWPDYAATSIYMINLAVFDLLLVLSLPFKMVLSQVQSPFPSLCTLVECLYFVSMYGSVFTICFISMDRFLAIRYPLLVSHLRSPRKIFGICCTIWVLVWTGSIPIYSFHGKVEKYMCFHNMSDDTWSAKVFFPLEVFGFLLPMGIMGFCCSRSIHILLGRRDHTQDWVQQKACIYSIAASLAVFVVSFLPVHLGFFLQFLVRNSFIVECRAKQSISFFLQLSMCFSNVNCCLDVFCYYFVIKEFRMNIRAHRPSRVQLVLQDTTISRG
T1 sequence (P21453 whole entry): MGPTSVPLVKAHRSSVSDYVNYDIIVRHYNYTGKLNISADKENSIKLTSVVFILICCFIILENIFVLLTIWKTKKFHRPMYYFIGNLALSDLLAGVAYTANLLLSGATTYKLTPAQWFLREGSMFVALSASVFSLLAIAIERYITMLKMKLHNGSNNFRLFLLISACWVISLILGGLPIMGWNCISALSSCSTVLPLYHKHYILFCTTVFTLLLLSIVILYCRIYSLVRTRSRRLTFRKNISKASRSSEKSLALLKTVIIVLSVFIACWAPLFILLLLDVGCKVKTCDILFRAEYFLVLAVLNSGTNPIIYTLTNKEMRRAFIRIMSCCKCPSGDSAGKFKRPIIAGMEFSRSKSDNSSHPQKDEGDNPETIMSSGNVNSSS

Row | Compound | activation of unrelated receptors (EDG1) (EDG1) [fold over background] | increase in reporter gene activity in control cells [1] | agonism at GPR 55 (Human GPR55; GPR 55 expressed in yeast containing Gpa1/GαI3, Gαi2 and Gαi3 chimeras (FIG. 3 legend)) | GPR55 activity in strain expressing Gpa1/Gα12 (Human GPR55; Gpa1/Gα12) | GPR55 activity in strains expressing Gpa1/Gαi2 or Gpa1/Gαi3 (Human GPR55; Gpa1/Gαi2 or Gpa1/Gαi3 (FIG. 3)) | reporter gene activity (Human GPR55; yeast co-expressing p426GPD-GPR55 and Gpa1/Gα13, response dependent on concentration (FIG. 3)) | activation of GPR55 (Human GPR55; yeast reporter assay) | activity at GPR55 (Human GPR55; tested at GPR55 in yeast, data not shown)
1 | Cc1c(C(=O)NN2CCCCC2)nn(-c2ccc(Cl)cc2Cl)c1-c1ccc(I)cc1 [AM251, N-(piperidin-1-yl)-5-(4-iodophenyl)-1-(2,4-dichlorophenyl)-4-methyl-1H-pyrazole-3-carboxamide] | 1.3 | not observed | acts as an agonist | Activity has also been observed | weaker activities | significant increase | up to 60 fold over background | 
2 | Cc1c(C(=O)NN2CCOCC2)nn(-c2ccc(Cl)cc2Cl)c1-c1ccc(I)cc1 [AM281, 1-(2,4-dichlorophenyl)-5-(4-iodophenyl)-4-methyl-N-4-morpholinyl-1H-pyrazole-3-carboxamide] |  |  |  |  |  |  |  | appeared active
